Starred links: 1 amine or outer side, 2 acyl side, 3 side chain; linkers in the order of their positions; H or OH if unused. Positions of bridges follow the written chain, without caps; N, C: chain ends. Non-standard residues stand in square brackets, D forms with d. Residues, ends and D or L forms follow the SMILES beside them. X2 = N=C(N)NCCC[C@@H](C(=O)[C@H](CCC(N)=O)N[*:1])C(=O)[*:2]; X1 = NCCCC[C@@H](C(=O)[C@H](CCCCN)N[*:1])C(=O)[*:2]
Columns and labels:
[1] = Inhibition of trypsin by substrate hydrolysis based fluorescence assay
[2] = Inhibition of tryptase by substrate hydrolysis based fluorescence assay
Neutrophil elastase = biological target: T1, Neutrophil elastase (Homo sapiens, UniProt P08246); assay: Inhibition of human leukocyte elastase by substrate hydrolysis based fluorescence assay
T1 sequence (P08246 whole entry): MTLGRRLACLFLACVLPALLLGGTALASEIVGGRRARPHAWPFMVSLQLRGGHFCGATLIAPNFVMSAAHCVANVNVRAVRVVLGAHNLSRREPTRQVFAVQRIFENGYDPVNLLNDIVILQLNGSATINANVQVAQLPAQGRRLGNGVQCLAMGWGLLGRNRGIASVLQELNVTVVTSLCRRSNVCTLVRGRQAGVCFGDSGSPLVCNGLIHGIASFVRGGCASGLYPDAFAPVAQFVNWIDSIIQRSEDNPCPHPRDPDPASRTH

For `CC[C@H](C)[C@@H]1NC(=O)[C@@H]2CSSC[C@@H]3NC(=O)[C@H](C(C)C)NC(=O)CNC(=O)CNC(=O)[C@H](CC(=O)O)NC(=O)[C@H](CO)NC(=O)CNC(=O)[C@H](CO)NC(=O)CNC(=O)[C@@H]4CSSC[C@H](NC(=O)[C@H](CC(=O)O)NC(=O)[C@H](CO)NC(=O)[C@H](CC(=O)O)NC(=O)[C@H](CCCNC(=N)N)NC(=O)[C@H](CCCNC(=N)N)NC(=O)[C@H](CSSC[C@H](NC1=O)C(=O)N[C@@H](CCCNC(=N)N)C(=O)NCC(=O)N[C@@H](CC(N)=O)C(=O)NCC(=O)N[C@@H](Cc1ccc(O)cc1)C(=O)N4)NC(=O)[C@@H](CCCNC(=N)N)C(=O)[C@H](CCC(N)=O)NC(=O)[C@H](CC(C)C)NC(=O)[C@H]([C@@H](C)CC)NC(=O)[C@H](CCCNC(=N)N)NC(=O)[C@@H]1CCCN1C3=O)C(=O)N1CCC[C@H]1C(=O)NCC(=O)N[C@@H](C)C(=O)N2` (cyclo(ACICRGNGYCGSGSDGGVCPRIL[X2]CRRDSDCPG); disulfide 2-19, 4-25, 10-31), the Ki [1] was 0.085 nM, the Ki [2] was 100 nM and the Ki (Neutrophil elastase) was “Not Active”.

With `CC[C@H](C)[C@@H]1NC(=O)[C@@H]2CSSC[C@@H]3NC(=O)[C@H](C(C)C)NC(=O)CNC(=O)CNC(=O)[C@H](CC(=O)O)NC(=O)[C@H](CO)NC(=O)CNC(=O)[C@H](CO)NC(=O)CNC(=O)[C@@H]4CSSC[C@H](NC(=O)[C@H](CC(=O)O)NC(=O)[C@H](CO)NC(=O)[C@H](CC(=O)O)NC(=O)[C@H](CCCNC(=N)N)NC(=O)[C@H](CCCNC(=N)N)NC(=O)[C@H](CSSC[C@H](NC1=O)C(=O)N[C@@H](CCCNC(=N)N)C(=O)NCC(=O)N[C@@H](CC(N)=O)C(=O)NCC(=O)N[C@@H](Cc1ccc(O)cc1)C(=O)N4)NC(=O)[C@@H](CCCNC(=N)N)C(=O)[C@H](CCC(N)=O)NC(=O)[C@H](CC(C)C)NC(=O)[C@H]([C@@H](C)CC)NC(=O)[C@H](CCCCN)NC(=O)[C@@H]1CCCN1C3=O)C(=O)N1CCC[C@H]1C(=O)NCC(=O)N[C@@H](C)C(=O)N2` (cyclo(ACICRGNGYCGSGSDGGVCPKIL[X2]CRRDSDCPG); disulfide 2-19, 4-25, 10-31) the Ki [1] was 0.029 nM, the Ki [2] was 1600 nM and the Ki (Neutrophil elastase) was “Not Active”.

A Ki [1] of over 0.109 nM, a Ki [2] of over 50000 nM and a Ki (Neutrophil elastase; read-out: Ki) of 32 nM were found for `CC[C@H](C)[C@@H]1NC(=O)[C@H](C)NC(=O)[C@@H]2CCCN2C(=O)[C@@H]2CSSC[C@@H]3NC(=O)[C@H](C)NC(=O)CNC(=O)[C@@H]4CCCN4C(=O)[C@@H]4CSSC[C@H](NC(=O)[C@H](Cc5ccc(O)cc5)NC(=O)CNC(=O)[C@H](CC(N)=O)NC(=O)CNC(=O)[C@H](CCCNC(=N)N)NC(=O)[C@H](CSSC[C@H](NC(=O)[C@@H](CCCNC(=N)N)C(=O)[C@H](CCC(N)=O)NC(=O)[C@H](CC(C)C)NC1=O)C(=O)N[C@@H](CCCNC(=N)N)C(=O)N[C@@H](CCCNC(=N)N)C(=O)N[C@@H](CC(=O)O)C(=O)N[C@@H](CO)C(=O)N[C@@H](CC(=O)O)C(=O)N4)NC(=O)[C@H]([C@@H](C)CC)NC3=O)C(=O)NCC(=O)N[C@@H](CO)C(=O)NCC(=O)N[C@@H](CO)C(=O)N[C@@H](CC(=O)O)C(=O)NCC(=O)NCC(=O)N[C@@H](C(C)C)C(=O)N2` (cyclo(ACICRGNGYCGSGSDGGVCPAIL[X2]CRRDSDCPG); disulfide 2-19, 4-25, 10-31) in this work.

A Ki [2] of over 50000 nM and a Ki (Neutrophil elastase; read-out: Ki) of 500 nM were found for `CC[C@H](C)[C@@H]1NC(=O)[C@@H]2CSSC[C@@H]3NC(=O)[C@H](C(C)C)NC(=O)CNC(=O)CNC(=O)[C@H](CC(=O)O)NC(=O)[C@H](CO)NC(=O)CNC(=O)[C@H](CO)NC(=O)CNC(=O)[C@@H]4CSSC[C@H](NC(=O)[C@H](CC(=O)O)NC(=O)[C@H](CO)NC(=O)[C@H](CC(=O)O)NC(=O)[C@H](CCCNC(=N)N)NC(=O)[C@H](CCCNC(=N)N)NC(=O)[C@H](CSSC[C@H](NC1=O)C(=O)N[C@@H](CCCNC(=N)N)C(=O)NCC(=O)N[C@@H](CC(N)=O)C(=O)NCC(=O)N[C@@H](Cc1ccc(O)cc1)C(=O)N4)NC(=O)[C@@H](CCCNC(=N)N)C(=O)[C@H](CCC(N)=O)NC(=O)[C@H](CC(C)C)NC(=O)[C@@H]1CCCN1C(=O)[C@@H](C(C)C)NC(=O)[C@H](C)NC3=O)C(=O)N1CCC[C@H]1C(=O)NCC(=O)N[C@@H](C)C(=O)N2` in this work.

With `CC[C@H](C)[C@@H]1NC(=O)[C@@H]2CSSC[C@@H]3NC(=O)[C@H](C(C)C)NC(=O)CNC(=O)CNC(=O)[C@H](CC(=O)O)NC(=O)[C@H](CO)NC(=O)CNC(=O)[C@H](CO)NC(=O)CNC(=O)[C@@H]4CSSC[C@H](NC(=O)[C@H](CC(=O)O)NC(=O)[C@H](CO)NC(=O)[C@H](CC(=O)O)NC(=O)[C@H](CCCNC(=N)N)NC(=O)[C@H](CCCNC(=N)N)NC(=O)[C@H](CSSC[C@H](NC1=O)C(=O)N[C@@H](CCCNC(=N)N)C(=O)NCC(=O)N[C@@H](CC(N)=O)C(=O)NCC(=O)N[C@@H](Cc1ccc(O)cc1)C(=O)N4)NC(=O)[C@@H](CCCNC(=N)N)C(=O)[C@H](CCC(N)=O)NC(=O)[C@H](CC(C)C)NC(=O)[C@H]([C@@H](C)CC)NC(=O)[C@H](CCC(N)=O)NC(=O)[C@@H]1CCCN1C3=O)C(=O)N1CCC[C@H]1C(=O)NCC(=O)N[C@@H](C)C(=O)N2` (cyclo(ACICRGNGYCGSGSDGGVCPQIL[X2]CRRDSDCPG); disulfide 2-19, 4-25, 10-31) the Ki [1] was over 0.106 nM, the Ki [2] was over 50000 nM and the Ki (Neutrophil elastase) was “Not Active”.

With `CC[C@H](C)[C@@H]1NC(=O)[C@@H]2CSSC[C@@H]3NC(=O)[C@H](C(C)C)NC(=O)CNC(=O)CNC(=O)[C@H](CC(=O)O)NC(=O)[C@H](CO)NC(=O)CNC(=O)[C@H](CO)NC(=O)CNC(=O)[C@@H]4CSSC[C@H](NC(=O)[C@H](CC(=O)O)NC(=O)[C@H](CO)NC(=O)[C@H](CC(=O)O)NC(=O)[C@H](CCCNC(=N)N)NC(=O)[C@H](CCCNC(=N)N)NC(=O)[C@H](CSSC[C@H](NC1=O)C(=O)N[C@@H](CCCNC(=N)N)C(=O)NCC(=O)N[C@@H](CC(N)=O)C(=O)NCC(=O)N[C@@H](Cc1ccc(O)cc1)C(=O)N4)NC(=O)[C@@H](CCCCN)C(=O)[C@H](CCCCN)NC(=O)[C@H](CC(C)C)NC(=O)[C@H]([C@@H](C)CC)NC(=O)[C@H](CCCCN)NC(=O)[C@@H]1CCCN1C3=O)C(=O)N1CCC[C@H]1C(=O)NCC(=O)N[C@@H](C)C(=O)N2` (cyclo(ACICRGNGYCGSGSDGGVCPKIL[X1]CRRDSDCPG); disulfide 2-19, 4-25, 10-31) the Ki [1] was 0.075 nM, the Ki [2] was 600 nM and the Ki (Neutrophil elastase) was “Not Active”.

A Ki [2] of over 50000 nM and a Ki (Neutrophil elastase; read-out: Ki) of 520 nM were found for `CC[C@H](C)[C@@H]1NC(=O)[C@@H]2CSSC[C@@H]3NC(=O)[C@H](C(C)C)NC(=O)CNC(=O)CNC(=O)[C@H](CC(=O)O)NC(=O)[C@H](CO)NC(=O)CNC(=O)[C@H](CO)NC(=O)CNC(=O)[C@@H]4CSSC[C@H](NC(=O)[C@H](CC(=O)O)NC(=O)[C@H](CO)NC(=O)[C@H](CC(=O)O)NC(=O)[C@H](CCCNC(=N)N)NC(=O)[C@H](CCCNC(=N)N)NC(=O)[C@H](CSSC[C@H](NC1=O)C(=O)N[C@@H](CCCNC(=N)N)C(=O)NCC(=O)N[C@@H](CC(N)=O)C(=O)NCC(=O)N[C@@H](Cc1ccc(O)cc1)C(=O)N4)NC(=O)[C@@H](CCCNC(=N)N)C(=O)[C@H](CCC(N)=O)NC(=O)[C@H](CC(C)C)NC(=O)[C@@H]1CCCN1C(=O)[C@H](C(C)C)NC(=O)[C@@H]1CCCN1C3=O)C(=O)N1CCC[C@H]1C(=O)NCC(=O)N[C@@H](C)C(=O)N2` (cyclo(ACICRGNGYCGSGSDGGVCPVPL[X2]CRRDSDCPG); disulfide 2-19, 4-25, 10-31) in this work.

— ChEMBL document CHEMBL1154296, “Potent inhibitors of beta-tryptase and human leukocyte elastase based on the MCoTI-II scaffold” (J Med Chem, 2009)
